This is an account of results in paper PMC10812467, “Peroxidasin Inhibition by Phloroglucinol and Other Peroxidase Inhibitors” (Antioxidants, 2023).

One experiment concerns the target T1, Human peroxidasin (PXDN) (Homo sapiens, UniProt Q92626).
T1 construct: the four immunoglobulin domains and the peroxidase domain (amino acid residue 246-1314); made in house; host or cells: transient transfection
T1 sequence (Q92626 246-1314): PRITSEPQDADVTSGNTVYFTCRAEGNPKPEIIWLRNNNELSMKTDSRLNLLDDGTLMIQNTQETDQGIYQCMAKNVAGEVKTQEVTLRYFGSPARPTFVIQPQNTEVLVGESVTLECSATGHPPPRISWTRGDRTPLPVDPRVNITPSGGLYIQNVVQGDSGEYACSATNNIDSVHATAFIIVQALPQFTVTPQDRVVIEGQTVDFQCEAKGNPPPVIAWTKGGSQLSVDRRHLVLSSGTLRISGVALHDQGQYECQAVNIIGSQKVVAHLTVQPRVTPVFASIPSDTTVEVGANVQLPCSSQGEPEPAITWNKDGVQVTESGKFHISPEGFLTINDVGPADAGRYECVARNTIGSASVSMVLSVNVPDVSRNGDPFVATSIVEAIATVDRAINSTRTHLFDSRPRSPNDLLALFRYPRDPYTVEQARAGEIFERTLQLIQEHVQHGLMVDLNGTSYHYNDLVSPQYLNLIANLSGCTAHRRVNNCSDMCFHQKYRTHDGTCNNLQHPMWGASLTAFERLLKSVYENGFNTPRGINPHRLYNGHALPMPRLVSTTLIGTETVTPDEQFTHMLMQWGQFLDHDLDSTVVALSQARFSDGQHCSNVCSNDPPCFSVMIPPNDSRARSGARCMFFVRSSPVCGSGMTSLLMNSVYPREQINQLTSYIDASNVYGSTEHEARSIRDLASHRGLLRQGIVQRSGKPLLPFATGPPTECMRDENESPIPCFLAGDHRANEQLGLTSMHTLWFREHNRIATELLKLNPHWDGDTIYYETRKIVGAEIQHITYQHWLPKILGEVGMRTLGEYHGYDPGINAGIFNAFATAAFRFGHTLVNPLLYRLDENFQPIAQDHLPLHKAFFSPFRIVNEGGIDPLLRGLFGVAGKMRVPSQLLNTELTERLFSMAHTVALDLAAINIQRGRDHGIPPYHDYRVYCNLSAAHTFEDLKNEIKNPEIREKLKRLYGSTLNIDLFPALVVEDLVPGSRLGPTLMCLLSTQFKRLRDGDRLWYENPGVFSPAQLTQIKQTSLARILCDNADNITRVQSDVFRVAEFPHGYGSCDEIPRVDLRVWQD
Description: Reversibility of inactivation of immobilized PXDN (wash, then Amplex assay). The class given is biochemical. Particulars: 10 min, washed four times. On the procedure: 200 ng of PXDN in 50 μL PBS was added per well of a Corning high-binding ELISA microplate for 2 h at room temperature. After four PBS washes, the respective inhibitors were added at a final concentration of 20 μM in phosphate buffer pH 7.4, before 10 μM of hydrogen peroxide was added in a final volume of 50 μL. In a control experiment, no hydrogen peroxide was added. After 10 min of incubation, the plates were washed four times with PBS and activity was measured as previously described, by adding 50 μL/well of 50 μM Amplex™ UltraRed Reagent, 20 μM hydrogen peroxide and 50 mM bromide in 50 mM phosphate buffer pH 7.4. The plate was incubated for 30 min in the dark at 37 °C before fluorescence was measured (λex 544 nm, λem 590 nm) and expressed as % activity of the untreated control.

The next experiment has as its system MPO. To be noted: literature statement; cited from earlier work.
Another experiment concerns the target T2, PXDN Compound I (Homo sapiens, UniProt Q92626).
T2 construct: the four immunoglobulin domains and the peroxidase domain (amino acid residue 246-1314); made in house; host or cells: transient transfection
T2 sequence (Q92626 246-1314): T1 sequence (Q92626 246-1314)
In words: Sequential stopped-flow spectroscopy of PXDN Compound I with inhibitors. The experiment is classed as biochemical. Particulars: 1 μM PXDN Compound I, pH 7.4, 25 °C. On the procedure: Pre-steady-state spectra were recorded with the stopped-flow apparatus SX.18MV (Applied Photophysics Ltd, Leatherhead, UK) connected to a diode array detector (DAD), with the first spectrum recorded 14 ms after the mixing of the reactants. Due to the inherent instability of Compound I of PXDN, the sequential mixing mode was used to generate Compound I. Equal volumes of 4 μM PXDN and 4 μM hydrogen peroxide were mixed in the aging loop. […] Interconversion of redox intermediates of PXDN was monitored for 60 s. […] All reactions were performed in 100 mM phosphate buffer, pH 7.4, and at 25 °C. Time traces (410 nm to monitor Compound I and ferric PXDN, 432 nm for Compound II and 550 and 590 nm to monitor Compound III [46]) were extracted from the time-resolved spectra.

Another experiment relates to TPO. The arrangement: method as in PMID 8068644. To be noted: cited from earlier work.
Experiment [1] deals with collagen IV NCD sulfilimine cross-link formation in isolated ECM from PFHR9 cells. Description: Inhibition of collagen IV cross-linking in decellularized extracellular matrix. The class given is biochemical. On the procedure: PFHR9 cells (ATCC) were grown in Dulbecco’s Modified Eagle Medium (Gibco), supplemented with 10% heat-inactivated foetal bovine serum (Moregate) and 1% Penicillin Streptomycin (Gibco). As described previously, cells were seeded in 150 mm cell culture dishes and ECM was isolated. The concentration of the isolated ECM protein was measured (Direct Detect) and the yield was typically ~5 mg per dish. […] After 10 min, 100 μM bromide was added and the cross-link formation was started by adding 100 μM hydrogen peroxide. After 1 h at 37 °C, the reaction was stopped, by adding 1 mM sodium azide, and ECM was digested with 2 mg mL^−1 of collagenase type I (Worthington) for 48 h at 37 °C. The digest was spun (20 kg, RT, 20 min) and the extent of cross-linking of the NCD of collagen IV was determined by the resolution of the supernatant protein on a 12% sodium dodecyl-sulfate polyacrylamide gel electrophoresis (SDS-PAGE). […] Densitometric analyses of both dimer bands (Alliance Uvitec Cambridge imager) were used to determine the extent of inhibition of the cross-link formation. […] Once full confluence was reached, the medium was changed daily, and inhibitors were added at the indicated concentrations in 1 mL of medium for 7 days.

Like-named read-outs stand apart in the source and are kept apart here.

As to `Oc1cc(O)cc(O)c1` [Phloroglucinol, 1,3,5-Trihydroxybenzene], the “Irreversible Inhibition” value at Human peroxidasin (PXDN) (20 μM inhibitor, then Amplex assay) was “yes”. Besides, at Human peroxidasin (PXDN) (immobilized PXDN, 20 μM inhibitor without or with 10 μM hydrogen peroxide, read-out: inhibition of PXDN remaining after washing), the inhibition (usually the relative decrease from the control value, in per cent) at 20 µM is greater than 95%. In addition, the “inhibition of MPO” value with MPO was “not to be inhibited”. On PXDN Compound I, the “Mechanism or Reaction Steady and Pre-Steady State Spectrophotometry” value is “Adduct formation or tight ligand binding”. The “inhibition of TPO” value in the experiment on TPO is recorded as “potently inhibits”. The IC50 – broadly, the concentration needed to halve the response being measured – is 0.95 µM in experiment [1] (100 μM bromide, 100 μM hydrogen peroxide, 1 h 37 °C, Western blot densitometry, read-out: IC50 DECM) and roughly 0.95 µM in experiment [1] (read-out: IC50 inhibition of collagen IV cross-link formation in ECM model).
